Laboratory results: ChEMBL document CHEMBL3137667, “[Drug-induced liver injury; fourteenth updated edition of the bibliographic database of liver injuries and related drugs]” (Gastroenterol Clin Biol, 2004)

Experiments:
[1] = Highest frequency of moderate liver toxicity observed during clinical trials, expressed as a percentage. [column '% BIOL' in source]; settings: human
[2] = Highest frequency of acute liver toxicity observed during clinical trials, expressed as a percentage. [column '% AIGUE' in source]; settings: human
[3] = human, serum
[4] = human, serum; remark: listed apart in the source
[5] = human
[6] = human; remark: listed apart in the source
[7] = human; remark: listed apart in the source
[8] = human, serum, 4383 h
[9] = human; remark: listed apart in the source
[10] = human; remark: listed apart in the source
[11] = human; remark: listed apart in the source
[12] = human; remark: listed apart in the source
[13] = human; remark: listed apart in the source
[14] = human; remark: listed apart in the source
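For Hepatotoxicity (association with vascular disease) in this document: count of indexed literature references reporting vascular liver injury in humans, e.g. peliosis hepatitis, hepatic veno-occlusive disease or Budd-Chiari syndrome.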
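For Hepatotoxicity (benign tumour) in this document: value is a count of indexed literature references citing a benign tumour confirmed by histopathology.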
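For Hepatotoxicity (choleostasis) in this document: human cholestatic liver injury, shown by histopathology or by peak ALT or AST elevation over alkaline phosphatase ratio below 2, value counts indexed literature reports.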
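For Hepatotoxicity (chronic liver disease) in this document: chronic liver injury confirmed by histopathology or persistently raised serum aminotransferase activity beyond 6 months, value given as the count of indexed literature references.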
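For Hepatotoxicity (cirrhosis) in this document: value is a count of indexed literature references reporting cirrhosis confirmed by histopathology.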
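For Hepatotoxicity (cytolytic) in this document: human cytolytic liver injury, shown by histopathology or by a ratio above 5 of peak ALT or AST elevation to alkaline phosphatase elevation, value counts indexed references.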
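For Hepatotoxicity (granulomatous hepatitis) in this document: value is a count of indexed literature references reporting granulomatous liver disease confirmed by histopathology.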
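For Hepatotoxicity (malignant tumour) in this document: malignant tumour confirmed by histopathology, value gives the count of indexed literature references reporting it.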
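For Hepatotoxicity (severe hepatitis) in this document: human clinical data: severe hepatitis, meaning potentially life-threatening liver failure or clinically observed cases, the value counts how many indexed literature references report it.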
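For Hepatotoxicity (steatosis) in this document: steatosis confirmed by histopathology, value is the count of indexed references.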

Substance | Hepatotoxicity (moderate) [1] [%] | Hepatotoxicity (acute) [2] [%] | Hepatotoxicity (moderate) [3] | Hepatotoxicity (acute) [4] | Hepatotoxicity (cytolytic) [5] | Hepatotoxicity (choleostasis) [6] | Hepatotoxicity (severe hepatitis) [7] | Hepatotoxicity (chronic liver disease) [8] | Hepatotoxicity (cirrhosis) [9] | Hepatotoxicity (granulomatous hepatitis) [10] | Hepatotoxicity (association with vascular disease) [11] | Hepatotoxicity (steatosis) [12] | Hepatotoxicity (malignant tumour) [13] | Hepatotoxicity (benign tumour) [14]
BEMIPARIN SODIUM | 0 | 0 | 1 | 0 | 0 | 0 | 0 | 0 | 0 | 0 | 0 | 0 | 0 | 0
CAPROMAB PENDETIDE | < 1 | 0 | 1 | 0 | 0 | 0 | 0 | 0 | 0 | 0 | 0 | 0 | 0 | 0
CHOLESTYRAMINE | 30 | 0 | 11 | 0 | 0 | 0 | 0 | 0 | 0 | 0 | 0 | 0 | 0 | 0
COLISTIN | 0 | 0 | 1 | 0 | 0 | 0 | 0 | 0 | 0 | 0 | 0 | 0 | 0 | 0
DENILEUKIN DIFTITOX | 45 | 10 | 3 | 1 | 1 | 0 | 0 | 0 | 0 | 0 | 0 | 0 | 0 | 0
EPOETIN ALFA | 20 | 0 | 4 | 0 | 0 | 0 | 0 | 0 | 0 | 0 | 0 | 0 | 0 | 0
ETARACIZUMAB | 77.8 | 0 | 1 | 0 | 0 | 0 | 0 | 0 | 0 | 0 | 0 | 0 | 0 | 0
GALLIUM | 28.6 | 21.4 | 1 | 1 | 0 | 1 | 0 | 0 | 0 | 0 | 0 | 0 | 0 | 0
GENTAMICIN | 14.3 | 0 | 7 | 0 | 0 | 0 | 0 | 0 | 0 | 0 | 0 | 0 | 0 | 0
INTERLEUKIN 1BETA | 75 | 0 | 1 | 0 | 0 | 0 | 0 | 0 | 0 | 0 | 0 | 0 | 0 | 0
LENTINAN | 2 | 0 | 2 | 0 | 0 | 0 | 0 | 0 | 0 | 0 | 0 | 0 | 0 | 0
LOBAPLATIN | 3.7 | 0 | 1 | 0 | 0 | 0 | 0 | 0 | 0 | 0 | 0 | 0 | 0 | 0
NARTOGRASTIM | 0 | 0 | 1 | 0 | 0 | 0 | 0 | 0 | 0 | 0 | 0 | 0 | 0 | 0
